Data published in US20240391931A1 (Bristol-Myers Squibb Company, priority 2021, published 2024).

How the values were obtained:
BT474 cells = test: Cellular proliferation in BT474 cells (CellTiter Glo); assay type: cell-based, human; details: 120 h, redosed after 72 h
Procedure: (§1) In addition to the engineered cell lines, the following cell lines were used: BT474 (human breast carcinoma), N87 (human gastric carcinoma), NCI-H1781 (human lung adenocarcinoma), and A431 (human epidermoid carcinoma); all cell lines were obtained from the American Type Culture Collection (ATCC, Manassas, VA). NCI-H1781 were grown in complete RPMI 1640 (Life Technologies, Carlsbad, CA) supplemented with 15% fetal bovine serum (FBS, Life Technologies, Carlsbad, CA) and 1% Penicillin-Streptomycin (P/S, Life Technologies, Carlsbad, CA). N87 cells were grown in complete RPMI 1640 supplemented with 10% FBS and 1% P/S. BT474 and A431 cells were grown in DMEM (Life Technologies, Carlsbad, CA) supplemented with 10% FBS and 1% P/S. All cells were maintained and propagated in a humidified 5% CO2 incubator at 37° C.
(§2) Cell proliferation in adherent cells was investigated in two HER2 amplified cell lines (BT474, N87), and a HER2VC expressing cell line (NCI-H1781). BT474, NCI-H1781, and N87 were plated in their appropriate growth media supplemented with either 10% FBS (BT474, N87) or 15% FBS (NCI-H1781) and 1% P/S in 96-well white clear-bottom tissue culture plates (Costar, Sigma-Aldrich). The starting cell densities were 3500, 5500, and 5000 cells for BT474, NCI-H1781, and N87 cells, respectively. An 8-point standard curve with varying cell densities (starting at 50000 cells and serially diluting down 2-fold) was prepared for each cell line and read 6 h after plating. Cells were allowed to attach overnight prior to compound treatment. Compound solutions were prepared by serially diluting test compounds in DMSO (Sigma-Aldrich), then diluting 500× in their corresponding serum free media. Cells were treated by adding a 1:1 volume of test compound to a final concentration of […], 0.004, 0.0014, or 0.0005 μM, in 0.1% DMSO and 5% FBS (for BT474 and N87) or 7.5% FBS (NCI-H1781). In BT474 and NCI-H1781, cell media was replaced and cells were redosed with fresh test compound solutions after 72 h. Viability was determined by CellTiter Glo (Promega, Madison, WI) after 72 h for N87 cells, and after 120 h for BT474 and […] cells. The results were converted to cell numbers using a standard curve; growth inhibition (GI50 values) were determined by Graph Pad Prism. […] The results are provided in Table 4, under columns titled “BT474-GI50”, “N87-GI50”, and “NCI-H1781-GI50”.

[1] = molecular target: T1, HER2 wildtype (WT) protein (Homo sapiens, UniProt P04626); test: HER2 signaling (pHER2 Tyr1248/total HER2 MSD) in N87 cells; assay type: cell-based; details: 1.5 hr compound, 1% FBS
T1 construct: BT474 and N87 cell lines which endogenously overexpress the HER2 wildtype (WT) protein; endogenous in cells; host or cells: BT474, N87
Procedure: as §1
(§3) HER2 signaling was assessed in BT474 and N87 cell lines which endogenously overexpress the HER2 wildtype (WT) protein, in NCI-H1781 cells which endogenously expresses a HER2 mutant protein containing a VC insertion in the kinase domain (HER2VC or G776delinsVC), and in engineered cell lines transduced to express the Her2 mutant protein containing the YVMA insertion (Hek293-HER2YVMA and BEAS2B-HER2YVMA).
(§4) BT474, N87, and NCI-H1781 were plated in 96-well tissue-culture treated plates (Corning Costar, Sigma-Aldrich) in full media and incubated overnight. Hek293-HER2YVMA and BEAS2B-HER2YVMA cells were plated in 96-well poly-D-lysine treated plates (BD Bioscience, San Jose, CA). For treatment with test compounds, the media was replaced with corresponding low serum media (1% FBS) containing test compound at 1.1, 0.37, 0.12, 0.041, 0.014, 0.005, 0.0014, 0.0005 μM or DMSO control (0.1%). Cells were incubated with compound for 1.5 hr at 37° C. After compound treatment, the media was removed and cells were lysed for 30 min on ice in complete MSD lysis buffer (prepared using MSD base lysis buffer (Meso-Scale Discovery) supplemented with cOmplete, EDTA-free Protease inhibitor cocktail (Roche), Phosphatase Inhibitor Cocktails 2 and 3 (Sigma-Aldrich), and 1 mM PMSF (Sigma-Aldrich)). Lysates were stored at −70° C. until further analysis.
(§5) HER2 signaling was evaluated using phospho (Tyr1248)/total ErbB2 whole cell lysate MSD plates (Meso-Scale Discovery, Gaithersburg, MD). The phospho HER2 signal was normalized to total HER2 for each sample; results are reported as % DMSO control. The normalized data was fitted using a sigmoidal curve analysis program (Graph Pad Prism version 6) with variable Hill slope to determine EC50 values.
(§6) The HER2 signaling results are provided in Table 4, under columns titled “BT474-pHER2 EC50”, “N87-pHER2 EC50”, and “NCI-H1781-pHER2 EC50”. Hek293-HER2YVMA ins fall under the heading “HEKYVMA-pHER2 EC50”, Ba/F3 HER2YVMA fall under the heading “Ba/F3 YVMA-pHER2 EC50” and BEAS2B-HER2YVMA fall under the heading “BEAS2B YVMA-pHER2 EC50”.

HER2VC (G776delinsVC) = molecular target: T2, HER2VC (G776delinsVC) (Homo sapiens, UniProt P04626, G776C/INS775V); test: HER2 signaling (pHER2) in NCI-H1781 cells; assay type: cell-based; details: 1.5 hr compound, 1% FBS
T2 construct: NCI-H1781 cells which endogenously expresses a HER2 mutant protein; endogenous in cells; host or cells: NCI-H1781
Procedure: as §1, §3, §4, §5, §6

NCI-H1781 cells = test: Cellular proliferation in NCI-H1781 cells (CellTiter Glo); assay type: cell-based, human; details: 120 h, redosed after 72 h
Procedure: as §1, §2

[2] = Homo sapiens, BT-474, BT474 cells
[3] = Homo sapiens, NCI-H1781, NCI-H1781 cells

T1 sequence (P04626 23-1255): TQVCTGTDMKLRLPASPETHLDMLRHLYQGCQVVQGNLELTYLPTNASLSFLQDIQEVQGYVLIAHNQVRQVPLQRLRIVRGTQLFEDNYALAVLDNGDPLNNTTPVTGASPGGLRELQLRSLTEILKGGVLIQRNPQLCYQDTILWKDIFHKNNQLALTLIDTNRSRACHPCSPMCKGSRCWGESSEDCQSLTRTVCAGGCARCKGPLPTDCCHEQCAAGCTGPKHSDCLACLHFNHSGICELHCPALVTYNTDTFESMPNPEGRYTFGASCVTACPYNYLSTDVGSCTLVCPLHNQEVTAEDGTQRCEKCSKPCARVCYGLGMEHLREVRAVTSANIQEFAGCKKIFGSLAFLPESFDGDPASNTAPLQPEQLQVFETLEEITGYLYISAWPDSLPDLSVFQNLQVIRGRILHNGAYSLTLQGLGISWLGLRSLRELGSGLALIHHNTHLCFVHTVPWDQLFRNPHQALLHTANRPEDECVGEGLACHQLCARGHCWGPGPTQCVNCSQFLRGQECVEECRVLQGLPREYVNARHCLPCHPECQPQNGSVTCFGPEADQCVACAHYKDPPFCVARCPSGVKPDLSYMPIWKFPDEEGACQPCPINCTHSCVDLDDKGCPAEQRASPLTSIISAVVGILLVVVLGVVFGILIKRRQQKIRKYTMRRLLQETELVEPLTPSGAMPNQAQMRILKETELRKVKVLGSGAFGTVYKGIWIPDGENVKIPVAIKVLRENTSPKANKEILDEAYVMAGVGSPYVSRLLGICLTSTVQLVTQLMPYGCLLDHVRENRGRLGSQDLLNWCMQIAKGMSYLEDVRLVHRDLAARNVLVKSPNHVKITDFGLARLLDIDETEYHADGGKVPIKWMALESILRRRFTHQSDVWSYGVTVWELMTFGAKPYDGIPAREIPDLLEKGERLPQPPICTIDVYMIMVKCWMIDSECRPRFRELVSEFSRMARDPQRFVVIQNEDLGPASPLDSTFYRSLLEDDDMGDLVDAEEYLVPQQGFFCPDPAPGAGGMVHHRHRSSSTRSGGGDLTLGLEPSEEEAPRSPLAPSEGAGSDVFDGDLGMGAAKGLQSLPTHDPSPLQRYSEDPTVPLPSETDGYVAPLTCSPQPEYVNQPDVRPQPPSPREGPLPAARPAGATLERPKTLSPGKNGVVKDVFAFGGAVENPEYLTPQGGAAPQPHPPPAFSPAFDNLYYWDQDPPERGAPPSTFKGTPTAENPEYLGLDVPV
T2 sequence (P04626 with tags, fused parts or gaps INS775V/G776C): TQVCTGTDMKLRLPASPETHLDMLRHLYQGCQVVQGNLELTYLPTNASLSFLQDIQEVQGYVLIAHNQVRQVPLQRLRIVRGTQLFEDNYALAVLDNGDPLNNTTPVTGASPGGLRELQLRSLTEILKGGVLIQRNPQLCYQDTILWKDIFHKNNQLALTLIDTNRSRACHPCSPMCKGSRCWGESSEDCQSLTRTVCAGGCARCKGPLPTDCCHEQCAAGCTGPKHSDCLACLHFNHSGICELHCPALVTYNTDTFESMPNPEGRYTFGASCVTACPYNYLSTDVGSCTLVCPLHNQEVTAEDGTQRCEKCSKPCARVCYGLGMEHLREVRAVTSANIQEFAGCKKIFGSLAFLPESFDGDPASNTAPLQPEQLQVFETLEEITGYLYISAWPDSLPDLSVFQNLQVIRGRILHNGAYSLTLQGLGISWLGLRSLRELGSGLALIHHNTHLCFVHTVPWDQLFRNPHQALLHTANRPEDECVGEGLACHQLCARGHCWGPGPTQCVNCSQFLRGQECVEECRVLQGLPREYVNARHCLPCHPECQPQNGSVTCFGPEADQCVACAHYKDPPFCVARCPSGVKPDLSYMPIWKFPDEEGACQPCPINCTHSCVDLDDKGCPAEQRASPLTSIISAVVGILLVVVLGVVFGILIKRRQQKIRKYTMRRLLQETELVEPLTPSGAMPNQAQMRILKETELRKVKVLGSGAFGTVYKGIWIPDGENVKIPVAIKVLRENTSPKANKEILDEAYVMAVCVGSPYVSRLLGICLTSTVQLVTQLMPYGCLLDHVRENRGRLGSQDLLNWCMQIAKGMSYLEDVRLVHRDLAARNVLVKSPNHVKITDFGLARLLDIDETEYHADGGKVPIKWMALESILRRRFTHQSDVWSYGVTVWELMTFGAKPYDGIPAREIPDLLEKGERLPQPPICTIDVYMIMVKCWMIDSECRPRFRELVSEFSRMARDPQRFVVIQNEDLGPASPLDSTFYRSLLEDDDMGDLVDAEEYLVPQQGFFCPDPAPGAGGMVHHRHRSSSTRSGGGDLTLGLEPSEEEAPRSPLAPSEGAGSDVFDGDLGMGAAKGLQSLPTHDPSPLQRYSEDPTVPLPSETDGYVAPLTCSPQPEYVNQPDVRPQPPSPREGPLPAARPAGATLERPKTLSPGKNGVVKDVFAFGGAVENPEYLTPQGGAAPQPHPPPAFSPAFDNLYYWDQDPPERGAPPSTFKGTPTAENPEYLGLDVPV

| SMILES | GI50 (BT474 cells; [2]) | EC50 [1] | EC50 (HER2VC (G776delinsVC)) | GI50 (NCI-H1781 cells; [3]) | GI50 (BT474 cells; BT474 cells) | GI50 (NCI-H1781 cells; NCI-H1781 cells) |
| --- | --- | --- | --- | --- | --- | --- |
| Cc1ccc(Oc2ccc(Nc3ncnc4sc5c(c34)C(C)CN(C(=O)C=CCN(C)C)C5)cc2C)cn1 (single isomer, unassigned) [Compound 105] | < 100 nM | < 100 nM | < 100 nM | < 100 nM | – | – |
| Cc1ccc(Oc2ccc(Nc3ncnc4sc5c(c34)C(C)CN(C(=O)C=CCN(C)C)C5)cc2C)cn1 (single isomer, unassigned) [Compound 106] | – | < 100 nM | < 100 nM | – | < 100 nM | < 100 nM |
| Cc1ccc(Oc2ccc(Nc3ncnc4sc5c(c34)CCN(C(=O)/C=C/CN3CC4C(CO)C4C3)C5)cc2C)cn1 (centres unmarked) [Compound 34] | < 100 nM | < 100 nM | < 100 nM | < 100 nM | – | – |
| Cc1ccc(Oc2ccc(Nc3ncnc4sc5c(c34)C(C)CN(C(=O)/C=C/CN(C)C)C5)cc2C)cn1 (centres unmarked) [Compound 98, (E)-4-(dimethylamino)-1-(5-methyl-4-((3-methyl-4-((6-methylpyridin-3-yl)oxy)phenyl)amino)-5,8-dihydropyrido[4′,3′:4,5]thieno[2,3-d]pyrimidin-7(6H)-yl)but-2-en-1-one] | < 100 nM | – | < 100 nM | < 100 nM | – | – |
| Cc1ccc(Oc2ccc(Nc3ncnc4sc5c(c34)CCN(C(=O)/C=C/CN(C)C(C)(C)C)C5)cc2C)cn1 [Compound 33] | < 100 nM | < 100 nM | < 100 nM | < 100 nM | – | – |
| Cc1ccc(Oc2ccc(Nc3ncnc4sc5c(c34)CCN(C(=O)/C=C/CN3CCCOCC3)C5)cc2C)cn1 [Compound 42] | < 100 nM | – | – | < 100 nM | – | – |

Second part, the molecule after the results:

| GI50 (BT474 cells; [2]) | EC50 [1] | EC50 (HER2VC (G776delinsVC)) | GI50 (NCI-H1781 cells; [3]) | GI50 (BT474 cells; BT474 cells) | GI50 (NCI-H1781 cells; NCI-H1781 cells) | SMILES |
| --- | --- | --- | --- | --- | --- | --- |
| – | – | < 100 nM | – | – | – | C=CC(=O)N1CCc2c(sc3ncnc(Nc4ccc(Oc5ccc6ncnn6c5)c(Cl)c4)c23)C1 [Compound 4, 1-(4-((4-([1,2,4]triazolo[1,5-a]pyridin-6-yloxy)-3-chlorophenyl)amino)-5,8-dihydropyrido[4′,3′:4,5]thieno[2,3-d]pyrimidin-7(6H)-yl)prop-2-en-1-one] |
| < 100 nM | < 100 nM | < 100 nM | < 100 nM | – | – | Cc1ccc(Oc2ccc(Nc3ncnc4sc5c(c34)CCN(C(=O)/C=C/CN(C)C)CC5)cc2C)cn1 [Compound 100, (E)-4-(dimethylamino)-1-(4-((3-methyl-4-((6-methylpyridin-3-yl)oxy)phenyl)amino)-8,9-dihydro-5H-pyrimido[5′,4′:4,5]thieno[2,3-d]azepin-7(6H)-yl)but-2-en-1-one] |
| < 100 nM | – | – | < 100 nM | – | – | Cc1ccc(Oc2ccc(Nc3ncnc4sc5c(c34)CN(C(=O)/C=C/CN(C)C)C5)cc2C)cn1 [Compound 99, (E)-4-(dimethylamino)-1-(4-((3-methyl-4-((6-methylpyridin-3-yl)oxy)phenyl)amino)-5,7-dihydro-6H-pyrrolo[3′,4′:4,5]thieno[2,3-d]pyrimidin-6-yl)but-2-en-1-one] |
| – | < 100 nM | < 100 nM | – | – | – | CN(C)C/C=C/C(=O)N1CCc2c(sc3ncnc(Nc4ccc(Oc5ccc6ncnn6c5)c(Cl)c4)c23)C1 [Compound 5, (E)-1-(4-((4-([1,2,4]triazolo[1,5-a]pyridin-6-yloxy)-3-chlorophenyl)amino)-5,8-dihydropyrido[4′,3′:4,5]thieno[2,3-d]pyrimidin-7(6H)-yl)-4-(dimethylamino)but-2-en-1-one] |
| < 100 nM | < 100 nM | < 100 nM | < 100 nM | – | – | COc1ccc(Oc2ccc(Nc3ncnc4sc5c(c34)CCN(C(=O)/C=C/CN(C)C)C5)cc2C)cn1 [Compound 95, (E)-4-(Dimethylamino)-1-(4-((4-((6-methoxypyridin-3-yl)oxy)-3-methylphenyl)amino)-5,6-dihydropyrido[4′,3′:4,5]thieno[2,3-d]pyrimidin-7(8H)-yl)but-2-en-1-one] |
| – | – | < 100 nM | – | – | – | Cc1cc(Nc2ncnc3sc4c(c23)CCN(C(=O)/C=C/CN(C)C)C4)ccc1Oc1ccc2ncnn2c1 [Compound 3, (E)-1-(4-((4-([1,2,4]triazolo[1,5-a]pyridin-6-yloxy)-3-methylphenyl)amino)-5,8-dihydropyrido[4′,3′:4,5]thieno[2,3-d]pyrimidin-7(6H)-yl)-4-(dimethylamino)but-2-en-1-one] |
